Test results as given in US20230270754A1, “COMBINATION THERAPY FOR INHALATION ADMINISTRATION” (Chemo Research, S.L., priority 2020, published 2023).

Legend:
Type in all cases: physicochemical
[1] = APSD by NGI, Example 4 budesonide/formoterol 70% vs 96% ethanol, soft mist inhaler
Experimental: Typical System Suitability Criteria applies as per USP <621> requirements.
For the APSD evaluation Formulation 1 and 2 were filled into cartridges compatible with a soft mist inhaler (Respimat®). The in vitro aerodynamic particle size distribution of both formulations was evaluated using an impactor, the next generation impactor, NGI (Copley Scientific Ltd) equipped with a mouthpiece adapter for the insertion of the inhaler, an induction port and an internal filter holder (IFH) to capture the smaller particles. The product was tested as per procedure detailed in the European pharmacopoeia chapter 2.9.18 (apparatus E) and US Pharmacopeia chapter <601> (apparatus 6) for Soft Mist Inhalers.
(§1) The NGI was cooled to 5° C. for at least 75 min. The cooling chamber was then opened and, after 30 minutes, the NGI was connected to a HCP5 vacuum pump (Copley Scientific Ltd). For each experiment, ten doses were discharged per NGI actuated at 28.3 L/min for 5 seconds each.
(§2) After the required actuations, the particles deposited on the different surfaces of the impactor were extracted using a suitable diluent (75/25 v/v MeOH/water) and with the help of a Gentle Rocker (Copley Scientific Ltd). Active ingredients were then quantified by HPLC as described above.
(§3) Data analysis. The NGI results were plotted against the stage cut-off diameter as the mass recovered from the induction port to the filter. Fine particle fraction (FPF %), mass median aerodynamic diameter (MMAD), fine particle dose (FPD) were determined from the analysis of the NGI data.
(§4) Results are expressed as the mean value of two NGIs analysis.

[2] = APSD by NGI, Example 2 Trimbow pMDI vs soft mist inhaler
Experimental: (§5) The in vitro aerodynamic assessment was carried using a next generation impactor, NGI (Copley Scientific Ltd), equipped with a mouthpiece adapter for the insertion of the inhaler, an induction port and an internal filter holder (IFH) to capture the smaller particles. The product was tested as per procedure detailed in the European pharmacopoeia chapter 2.9.18 (apparatus E) and US Pharmacopeia chapter <601> (apparatus 6) for Soft Mist Inhalers.
The NGI was cooled to 5° C. for at least 75 min. The cooling chamber was then opened and, after 30 minutes, the NGI was connected to a HCP5 vacuum pump (Copley Scientific Ltd). […]
(§6) After the required actuations, the particles deposited on the different surfaces of the impactor were extracted using a suitable diluent (methanol) and with the help of a Gentle Rocker (Copley Scientific Ltd).
as §3, §4

[3] = Active ingredient content after filtration (assay by Reverse Phase HPLC), Example 1; conditions: triple combination BDP/GB/FF; for Formulation 1 Assay (%) active ingredient content compared to the theoretical amount: Formulation 1: 70% Ethanol; for Formulation 2 Assay (%) active ingredient content compared to the theoretical amount: Formulation 2: 96% Ethanol
Experimental: Both formulations were filtrated, and individual assay of all active ingredients were tested by Reverse Phase HPLC.
Three independent Reverse Phase HPLC analytical methods were used for the determination of each active ingredient in all the analyses.

[4] = Delivered dose by dose unit sampling apparatus (DUSA), Example 2
Text: Active pharmaceutical ingredients (APIs) deposited in the sampling apparatus were quantitatively recovered with a DUSA shaker (Copley Scientific Ltd) and methanol. APIs were, then, quantified by HPLC with the same methods described in Example 1.
Results are expressed as the average of 5 measurements.

[5] = APSD by NGI, Example 3 Foster pMDI vs soft mist inhaler
Experimental: as §5, with “European” for “European pharmacopoeia chapter 2.9.18 (apparatus E)”, “Pharmacopeia” for “Pharmacopeia chapter <601> (apparatus 6)”, “Inhalers and pMDIs.” for “Inhalers.”
The NGI was cooled to 5° C. for at least 75 min. The cooling chamber was then opened and, after 30 minutes, the NGI was connected to a HCP5 vacuum pump (Copley Scientific Ltd). For each experiment, ten doses were discharged into the NGI at 30 L/min for 5 seconds each.
as §6, with “Ltd). Active ingredients were then quantified by HPLC, with the same methods used for the Example 1.” for “Ltd).”
Data analysis. The NGI was plotted against the stage cut-off diameter as the mass recovered from the induction port to the filter. Fine particle fraction (FPF %) and mass median aerodynamic diameter (MMAD) were determined from the analysis of the NGI data.
as §4

[6] = APSD by NGI, Example 5 Symbicort pMDI vs soft mist inhaler
Experimental: The in vitro aerodynamic particle size distribution of both formulations was evaluated using an impactor, the next generation impactor, NGI (Copley Scientific Ltd) equipped with a mouthpiece adapter for the insertion of the inhaler, an induction port and an internal filter holder (IFH) to capture the smaller particles. The product was tested as per procedure detailed in the European and US Pharmacopoeia for Soft Mist Inhalers and pMDIs.
as §1
as §2, with “HPLC, with the same methods” for “HPLC as”, “in example 4.” for “above.”
Data analysis. The NGI was plotted against the stage cut-off diameter as the mass recovered from the induction port to the filter. Fine particle fraction (FPF %), and mass median aerodynamic diameter (MMAD) were determined from the analysis of the NGI data.
as §4

[7] = Soft Mist Inhaler (1 actuation), triple combination in 96% ethanol
[8] = Soft Mist Inhaler (Respimat) 1 actuation, triple combination in 96% ethanol
[9] = Soft Mist Inhaler (1 actuation), double combination BDP/FF in 96% ethanol
[10] = Trimbow pMDI (2 actuations), table title: Foster pMDI (2 actuation)
[11] = Soft Mist Inhaler (1 actuation), budesonide/formoterol in 96% ethanol

Structure (SMILES) | FPD [2, 7] [µg] | FPF [2, 7] [%] | IP (induction port deposition) [2, 7] [%] | FPD ([2]; Trimbow pMDI (2 actuations)) [µg] | FPF ([2]; Trimbow pMDI (2 actuations)) [%] | IP (induction port deposition) ([2]; Trimbow pMDI (2 actuations)) [%] | Formulation 1 Assay (%) active ingredient content compared to the theoretical amount [3] [%] | Formulation 2 Assay (%) active ingredient content compared to the theoretical amount [3] [%] | DUSA (μg) delivered dose [4, 8] [µg] | DUSA (μg) delivered dose ([4]; Trimbow pMDI 1 actuation) [µg] | FPF (%) [5, 9] [%] | MMAD (μm) [5, 9] [μm] | FPF (%) [5, 10] [%] | MMAD (μm) [5, 10] [μm] | further results
COc1ccc(C[C@@H](C)NC[C@H](O)c2ccc(O)c(NC=O)c2)cc1.O.O.O=C(O)/C=C/C(=O)O (racemic) [Formoterol Fumarate] | 5.3 | 87.8 | 8.3 | 5.2 | 44.6 | 53.4 | 93.8 | 100.3 | 6.1 | 5.7 | 90.4 | 1.2 | 45.8 | 1.2 | FPD ([1]; Formulation 1 (70% EtOH)): 3.3 µg; FPF ([1]; Formulation 1 (70% EtOH)): 68.4%; MMAD ([1]; Formulation 1 (70% EtOH)): 2.7 μm; FPF ([1]; Formulation 2 (96% EtOH)): 89.7%; FPF (%) [6, 11]: 89.7%; MMAD (μm) [6, 11]: 1.1 μm; FPF (%) ([6]; Symbicort pMDI (1 actuation)): 58.7%; MMAD (μm) ([6]; Symbicort pMDI (1 actuation)): 3.3 μm
CCC(=O)OCC(=O)[C@@]1(OC(=O)CC)[C@@H](C)C[C@H]2[C@@H]3CCC4=CC(=O)C=C[C@]4(C)[C@@]3(Cl)[C@@H](O)C[C@@]21C [Beclometasone Dipropionate, 9-chloro-11β,17,21-trihydroxy-16β-methylpregna-1,4-diene-3, 20-dione 17,21-dipropionate] | 91.7 | 87.9 | 8.3 | 86.0 | 42.9 | 52.9 | 40.1 | 99.7 | 97.1 | 98.4 | 91.3 | 1.1 | 49.4 | 1.2 | MMAD [2, 7]: 1.2 μm; MMAD ([2]; Trimbow pMDI (2 actuations)): 1.2 μm
